Assay results published in patent US8569336B2, “Compounds for the treatment of inflammatory disorders” (priority 2008, dated 2013).
Where two headings read alike, the source gives them in different places.

Tests used:
[1] = molecular target: T1, purified catalytic domain of recombinant human TACE (rhTACEc) (Homo sapiens, UniProt P78536, N452Q/S266A); test: TACE kinetic assay: cleavage of internally quenched peptide substrate TNF-FRET 2 (Ki); assay type: biochemical; details: TNF-FRET 2 substrate
T1 construct: 6xHis (C); made in house; host or cells: baculovirus/Hi5 insect cells
T1 sequence (P78536 215-477 S266A/N452Q): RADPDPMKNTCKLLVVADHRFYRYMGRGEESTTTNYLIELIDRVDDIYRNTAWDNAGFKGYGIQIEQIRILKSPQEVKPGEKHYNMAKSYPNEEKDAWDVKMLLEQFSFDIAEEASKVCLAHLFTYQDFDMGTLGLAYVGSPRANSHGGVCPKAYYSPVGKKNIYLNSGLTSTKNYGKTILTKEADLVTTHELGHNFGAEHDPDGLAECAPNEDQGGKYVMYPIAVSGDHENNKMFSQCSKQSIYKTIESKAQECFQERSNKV

[2] = tested on: TNF-α production from human whole blood; test: Inhibition of TNF-α production from human whole blood (hWBA), LPS stimulated, ELISA; assay type: cell-based; details: Homo sapiens, TNF-α by ELISA, read-out: hWBA (IC50)
[3] = Area under the curve determinations of plasma levels in rats (rrAUC), oral 10 mg/kg; assay type: in vivo; details: rat, read-out: RR AUC (rapid rat AUC, rrAUC)
[4] = 3.5 h, human whole blood diluted 1:1, LPS stimulated, 3.5 h
[5] = LPS-stimulated human whole blood
[6] = human whole blood diluted 1:1, LPS stimulated
[7] = plasma, blood collected 0.5-6 h post-dosing

SMILES	Ki ([1]; read-out: Ki) [µM]	IC50 [2, 4] [µM]	AUC ([3]; plasma 0.5-6 h post-dosing) [µM·h]	Ki ([1]; Ki) [µM]	IC50 [2, 5] [µM]	AUC ([3]; plasma 0.5-6 h) [µM·h]	IC50 [2, 6] [µM]	AUC [3, 7] [µM·h]
COc1ccc2c(c1)C(=O)N(C[C@@]1(c3cc4c(-c5ccncc5)nccc4o3)NC(=O)NC1=O)C2 [Compound 2236]	0.00054	0.949	0.02					
COc1ccc2c(c1)C(=O)N(C[C@@]1(c3cc4nc(N5CCN(CCN(C)C)CC5)ccc4o3)NC(=O)NC1=O)C2 [Compound 2142]	0.000875	0.463	0.06					
COc1ccc2c(c1)C(=O)N(C[C@@]1(c3cc4cc(-c5ccc(N)nc5)c(F)cc4o3)NC(=O)NC1=O)C2 [Compound 1188]	0.00051	0.72	0.355					
COc1ccc2c(c1F)C(=O)N(C[C@@]1(c3cc4ccncc4o3)NC(=O)NC1=O)C2 [Compound 2272]	0.0003	0.167	2.79					
COc1ccc2c(c1)C(=O)N(C[C@@]1(c3cn4ccsc4n3)NC(=O)NC1=O)C2 [Compound 502C]				0.00126	0.538	2.22		
COc1ccc2c(c1F)C(=O)N(C[C@@]1(c3cc4cc(C5(C)NC(=O)NC5=O)cnc4o3)NC(=O)NC1=O)C2 (stereo partly drawn) [Compound 504]	0.000758				0.239	3.66		
COc1ccc2c(c1)C(=O)N(C[C@@]1(c3cc4nc(-n5nc(N)cc5C)ccc4o3)NC(=O)NC1=O)C2 [Compound 2118]		3.79	0.527	0.0006				
COc1ccc2c(c1F)C(=O)N(C[C@@]1(c3cc4cc5c(cc4o3)C(=O)NCC5)NC(=O)NC1=O)C2 [Compound 2491]	0.000195						0.109	0.972
COc1ccc2c(c1)C(=O)N(C[C@@]1(c3cc4nc(N5C(=O)CC[C@H]5CO)ccc4o3)NC(=O)NC1=O)C2 [Compound 2156]	0.000976	0.325	0.033					
COc1ccc2c(c1)C(=O)N(C[C@@]1(c3cc4nc(Nc5c(C)nn(C)c5C)ccc4o3)NC(=O)NC1=O)C2 [Compound 2112]	0.000385	0.533	0.019					
COc1ccc2c(c1)C(=O)N(C[C@@]1(c3cc4nc(N5CCCCC5=O)ccc4o3)NC(=O)NC1=O)C2 [Compound 1512]	0.0013				1.55	0.303		
COc1ccc2c(c1)C(=O)N(C[C@@]1(c3cc4nc(-c5ccncc5)ccc4o3)NC(=O)NC1=O)C2 [Compound 2110]	0.00062	0.351	10.5					
COc1ccc2c(c1F)C(=O)N(C[C@@]1(c3cc4nc(-c5ccc(N)nc5)c(F)cc4o3)NC(=O)NC1=O)C2 [Compound 1318]	0.00036				0.087	0.863		
COc1ccc2c(c1)C(=O)N(C[C@@]1(c3cc4cc(CNCCN(C)C)ccc4o3)NC(=O)NC1=O)C2 [Compound 2177]	0.000711	0.278	0.069					
COc1ccc2c(c1)C(=O)N(C[C@@]1(c3cc4nc(N)ccc4o3)NC(=O)NC1=O)C2 [Compound 1936]				0.00051	0.187	0.424		
CCN1CCN(c2ccc3oc([C@]4(CN5Cc6ccc(OCC7CC7)c(F)c6C5=O)NC(=O)NC4=O)cc3n2)CC1 [Compound 900]	0.00052				0.29	0.024		
CCN1CCN(c2nc3cc([C@]4(CN5Cc6ccc(OC)c(F)c6C5=O)NC(=O)NC4=O)oc3cc2F)CC1 [Compound 1709]	0.0007				0.131	0.623		
COc1ccc2c(c1F)C(=O)N(C[C@@]1(c3cc4nc(C)c(N5CCC5=O)cc4o3)NC(=O)NC1=O)C2 [Compound 1922]	0.00125				0.281	0.088		
COc1ccc2c(c1)C(=O)N(C[C@@]1(c3cc4c(-c5cccnc5)nccc4o3)NC(=O)NC1=O)C2 [Compound 2235]	0.000384	0.553	0.018					
COc1ccc2c(c1F)C(=O)N(C[C@@]1(c3cc4cc(C5(C)NC(=O)NC5=O)c(F)cc4o3)NC(=O)NC1=O)C2 (stereo partly drawn) [Compound 1316]	0.00102				0.104	45.7		
CNS(=O)(=O)c1cc2oc([C@]3(CN4Cc5ccc(OC)cc5C4=O)NC(=O)NC3=O)cc2cc1C [Compound 2480]				0.00043			1.39	0.212
COc1ccc2c(c1)C(=O)N(C[C@@]1(c3cc4c(C)nccc4o3)NC(=O)NC1=O)C2 [Compound 2284]	0.0005						0.198	2.8
COc1ccc2c(c1)C(=O)N(C[C@@]1(c3cc4cc(-n5cncn5)ccc4o3)NC(=O)NC1=O)C2 [Compound 2196]	0.000645	1.54	7.06					
CNS(=O)(=O)c1ccc2oc([C@]3(CN4Cc5ccc(OC)cc5C4=O)NC(=O)NC3=O)cc2c1 [Compound 2481]	0.00016						0.31	0.89
